Assay results: patent US9469650B2, “Melampomagnolide B derivatives” (BOARD OF TRUSTEES OF THE UNIVERSITY OF ARKANSAS, priority 2013, dated 2016)

Experiments:
SR = assay: panel of 60 human tumor cell lines, growth inhibition (Leukemia)
MDA-MB-435 = assay: panel of 60 human tumor cell lines, growth inhibition (Melanoma); settings: MDA-MB-435
SK-MEL-28 = assay: as above; settings: SK-MEL-28
UACC-62 = assay: as above; settings: UACC-62
SF-295 = assay: panel of 60 human tumor cell lines, growth inhibition (CNS Cancer); settings: SF-295
SF-539 = assay: as above; settings: SF-539
SNB-19 = assay: as above; settings: SNB-19
SNB-75 = assay: as above; settings: SNB-75
COLO 205 = assay: panel of 60 human tumor cell lines, growth inhibition (Colon Cancer); settings: COLO 205
HCC-2998 = assay: as above; settings: HCC-2998
HCT-116 = assay: as above; settings: HCT-116
KM12 = assay: as above; settings: KM12
ACHN = assay: panel of 60 human tumor cell lines, growth inhibition (Renal Cancer)
RXF 393 = assay: as above; settings: RXF 393
SN12C = assay: as above
UO-31 = assay: as above; settings: UO-31
BT-549 = assay: panel of 60 human tumor cell lines, growth inhibition (Breast Cancer); settings: BT-549
NCI/ADR-RES = assay: panel of 60 human tumor cell lines, growth inhibition (Ovarian Cancer)
NCI-H322M = assay: panel of 60 human tumor cell lines, growth inhibition (Non-Small Cell Lung Cancer)

With C=C1C(=O)O[C@H]2[C@H]1CC/C(COC(=O)CCC(=O)N1CCC(C)CC1)=C\CC[C@@]1(C)O[C@@H]21 [JVM 2-70] the “Percent Growth” value (SR; Log10 Concentration −4.0) was −38%, the “Percent Growth” value (SR; Log10 Concentration −5.0) was 6% and the “Percent Growth” value (SR; Log10 Concentration −6.0) was 84%. For the same compound, the “Percent Growth” value (SR; Log10 Concentration −7.0) was 102%, the “Percent Growth” value (SR; Log10 Concentration −8.0) was 101% and the GI50 (SR; NCI five dose) was 2.72 µM. For the same compound, the TGI (SR; NCI five dose) was 1.39E−5, the “Percent Growth” value (MDA-MB-435; Log10 Concentration −4.0) was −72% and the “Percent Growth” value (MDA-MB-435; Log10 Concentration −5.0) was 32%. The “Percent Growth” value (MDA-MB-435; Log10 Concentration −6.0) was 90%, the “Percent Growth” value (MDA-MB-435; Log10 Concentration −7.0) was 95% and the “Percent Growth” value (MDA-MB-435; Log10 Concentration −8.0) was 89%. The GI50 (MDA-MB-435; NCI five dose) was 4.84 µM, the TGI (MDA-MB-435; NCI five dose) was 2.03E−5 and the “Percent Growth” value (SK-MEL-28; Log10 Concentration −4.0) was −79%. The “Percent Growth” value (SK-MEL-28; Log10 Concentration −5.0) was 4%, the “Percent Growth” value (SK-MEL-28; Log10 Concentration −6.0) was 95% and the “Percent Growth” value (SK-MEL-28; Log10 Concentration −7.0) was 100%. The “Percent Growth” value (SK-MEL-28; Log10 Concentration −8.0) was 89%, the GI50 (SK-MEL-28; NCI five dose) was 3.1 µM and the TGI (SK-MEL-28; NCI five dose) was 1.11E−5. For the same compound, the “Percent Growth” value (UACC-62; Log10 Concentration −4.0) was −87%, the “Percent Growth” value (UACC-62; Log10 Concentration −5.0) was 33% and the “Percent Growth” value (UACC-62; Log10 Concentration −6.0) was 92%. The “Percent Growth” value (UACC-62; Log10 Concentration −7.0) was 94%, the “Percent Growth” value (UACC-62; Log10 Concentration −8.0) was 97% and the GI50 (UACC-62; NCI five dose) was 5.15 µM. For the same compound, the TGI (UACC-62; NCI five dose) was 1.89E−5, the “Percent Growth” value (SF-295; Log10 Concentration −4.0) was −72% and the “Percent Growth” value (SF-295; Log10 Concentration −5.0) was 74%. The “Percent Growth” value (SF-295; Log10 Concentration −6.0) was 93%, the “Percent Growth” value (SF-295; Log10 Concentration −7.0) was 93% and the “Percent Growth” value (SF-295; Log10 Concentration −8.0) was 89%. The GI50 (SF-295; NCI five dose) was 14.7 µM, the TGI (SF-295; NCI five dose) was 3.23E−5 and the “Percent Growth” value (SF-539; Log10 Concentration −4.0) was −90%. For the same compound, the “Percent Growth” value (SF-539; Log10 Concentration −5.0) was −20%, the “Percent Growth” value (SF-539; Log10 Concentration −6.0) was 92% and the “Percent Growth” value (SF-539; Log10 Concentration −7.0) was 97%. For the same compound, the “Percent Growth” value (SF-539; Log10 Concentration −8.0) was 93%, the GI50 (SF-539; NCI five dose) was 2.35 µM and the TGI (SF-539; NCI five dose) was 6.58E−6. For the same compound, the CC50 (SF-539; read-out: LC50, NCI five dose) was 26.5 µM, the “Percent Growth” value (SNB-19; Log10 Concentration −4.0) was −80% and the “Percent Growth” value (SNB-19; Log10 Concentration −5.0) was 73%. The “Percent Growth” value (SNB-19; Log10 Concentration −6.0) was 95%, the “Percent Growth” value (SNB-19; Log10 Concentration −7.0) was 96% and the “Percent Growth” value (SNB-19; Log10 Concentration −8.0) was 95%. The GI50 (SNB-19; NCI five dose) was 14 µM, the TGI (SNB-19; NCI five dose) was 2.98E−5 and the “Percent Growth” value (SNB-75; Log10 Concentration −4.0) was −85%. For the same compound, the “Percent Growth” value (SNB-75; Log10 Concentration −5.0) was 57%, the “Percent Growth” value (SNB-75; Log10 Concentration −6.0) was 80% and the “Percent Growth” value (SNB-75; Log10 Concentration −7.0) was 81%. The “Percent Growth” value (SNB-75; Log10 Concentration −8.0) was 72%, the GI50 (SNB-75; NCI five dose) was 11.2 µM and the TGI (SNB-75; NCI five dose) was 2.53E−5. The “Percent Growth” value (COLO 205; Log10 Concentration −4.0) was −88%, the “Percent Growth” value (COLO 205; Log10 Concentration −5.0) was −11% and the “Percent Growth” value (COLO 205; Log10 Concentration −6.0) was 104%. For the same compound, the “Percent Growth” value (COLO 205; Log10 Concentration −7.0) was 107%, the “Percent Growth” value (COLO 205; Log10 Concentration −8.0) was 94% and the GI50 (COLO 205; NCI five dose) was 2.94 µM. The TGI (COLO 205; NCI five dose) was 8.03E−6, the “Percent Growth” value (HCC-2998; Log10 Concentration −4.0) was −80% and the “Percent Growth” value (HCC-2998; Log10 Concentration −5.0) was 59%. For the same compound, the “Percent Growth” value (HCC-2998; Log10 Concentration −6.0) was 110%, the “Percent Growth” value (HCC-2998; Log10 Concentration −7.0) was 103% and the “Percent Growth” value (HCC-2998; Log10 Concentration −8.0) was 106%. The GI50 (HCC-2998; NCI five dose) was 11.5 µM, the TGI (HCC-2998; NCI five dose) was 2.65E−5 and the “Percent Growth” value (HCT-116; Log10 Concentration −4.0) was −93%. For the same compound, the “Percent Growth” value (HCT-116; Log10 Concentration −5.0) was −46%, the “Percent Growth” value (HCT-116; Log10 Concentration −6.0) was 79% and the “Percent Growth” value (HCT-116; Log10 Concentration −7.0) was 95%. For the same compound, the “Percent Growth” value (HCT-116; Log10 Concentration −8.0) was 91%, the GI50 (HCT-116; NCI five dose) was 1.69 µM and the TGI (HCT-116; NCI five dose) was 4.25E−6. The “Percent Growth” value (KM12; Log10 Concentration −4.0) was −87%, the “Percent Growth” value (KM12; Log10 Concentration −5.0) was 62% and the “Percent Growth” value (KM12; Log10 Concentration −6.0) was 98%. The “Percent Growth” value (KM12; Log10 Concentration −7.0) was 102%, the “Percent Growth” value (KM12; Log10 Concentration −8.0) was 102% and the GI50 (KM12; NCI five dose) was 12.1 µM. The TGI (KM12; NCI five dose) was 2.61E−5, the “Percent Growth” value (ACHN; Log10 Concentration −4.0) was −79% and the “Percent Growth” value (ACHN; Log10 Concentration −5.0) was 2%. For the same compound, the “Percent Growth” value (ACHN; Log10 Concentration −6.0) was 85%, the “Percent Growth” value (ACHN; Log10 Concentration −7.0) was 102% and the “Percent Growth” value (ACHN; Log10 Concentration −8.0) was 98%. For the same compound, the GI50 (ACHN; NCI five dose) was 2.64 µM, the TGI (ACHN; NCI five dose) was 1.05E−5 and the “Percent Growth” value (RXF 393; Log10 Concentration −4.0) was −88%. The “Percent Growth” value (RXF 393; Log10 Concentration −5.0) was −54%, the “Percent Growth” value (RXF 393; Log10 Concentration −6.0) was 91% and the “Percent Growth” value (RXF 393; Log10 Concentration −7.0) was 101%. The “Percent Growth” value (RXF 393; Log10 Concentration −8.0) was 105%, the GI50 (RXF 393; NCI five dose) was 1.91 µM and the TGI (RXF 393; NCI five dose) was 4.24E−6. For the same compound, the “Percent Growth” value (SN12C; Log10 Concentration −4.0) was −82%, the “Percent Growth” value (SN12C; Log10 Concentration −5.0) was 30% and the “Percent Growth” value (SN12C; Log10 Concentration −6.0) was 92%. The “Percent Growth” value (SN12C; Log10 Concentration −7.0) was 93%, the “Percent Growth” value (SN12C; Log10 Concentration −8.0) was 97% and the GI50 (SN12C; NCI five dose) was 4.8 µM. The TGI (SN12C; NCI five dose) was 1.86E−5, the “Percent Growth” value (UO-31; Log10 Concentration −4.0) was −84% and the “Percent Growth” value (UO-31; Log10 Concentration −5.0) was 19%. For the same compound, the “Percent Growth” value (UO-31; Log10 Concentration −6.0) was 88%, the “Percent Growth” value (UO-31; Log10 Concentration −7.0) was 94% and the “Percent Growth” value (UO-31; Log10 Concentration −8.0) was 96%. For the same compound, the GI50 (UO-31; NCI five dose) was 3.56 µM, the TGI (UO-31; NCI five dose) was 1.53E−5 and the “Percent Growth” value (BT-549; Log10 Concentration −4.0) was −96%. For the same compound, the “Percent Growth” value (BT-549; Log10 Concentration −5.0) was −10%, the “Percent Growth” value (BT-549; Log10 Concentration −6.0) was 71% and the “Percent Growth” value (BT-549; Log10 Concentration −7.0) was 86%. The “Percent Growth” value (BT-549; Log10 Concentration −8.0) was 81%, the GI50 (BT-549; NCI five dose) was 1.82 µM and the TGI (BT-549; NCI five dose) was 7.55E−6. For the same compound, the “Percent Growth” value (NCI/ADR-RES; Log10 Concentration −4.0) was −52%, the “Percent Growth” value (NCI/ADR-RES; Log10 Concentration −5.0) was 64% and the “Percent Growth” value (NCI/ADR-RES; Log10 Concentration −6.0) was 99%. The “Percent Growth” value (NCI/ADR-RES; Log10 Concentration −7.0) was 104%, the “Percent Growth” value (NCI/ADR-RES; Log10 Concentration −8.0) was 95% and the GI50 (NCI/ADR-RES; NCI five dose) was 13.1 µM. For the same compound, the TGI (NCI/ADR-RES; NCI five dose) was 3.55E−5, the “Percent Growth” value (NCI-H322M; Log10 Concentration −4.0) was −83% and the “Percent Growth” value (NCI-H322M; Log10 Concentration −5.0) was 93%. For the same compound, the “Percent Growth” value (NCI-H322M; Log10 Concentration −6.0) was 102%, the “Percent Growth” value (NCI-H322M; Log10 Concentration −7.0) was 108% and the “Percent Growth” value (NCI-H322M; Log10 Concentration −8.0) was 102%. It also gave a GI50 (NCI-H322M; NCI five dose) of 17.6 µM and a TGI (NCI-H322M; NCI five dose) of 3.39E−5.
